Several values for one entry are separate records, joined by “and”; a condition that tells them apart may be missing. Equal values may be shown once.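 Test compounds were applied to cells in 96-well plates for 48 hours at 5 doses. At the GI50, growth is halved. The concentration for full growth arrest is given as TGI.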
What was measured:
Assay in all cases: growth of human tumour cells (NCI), 48 h
HL-60(TB) leukemia = system: HL-60(TB) leukemia
MCF7 breast = system: MCF7 breast
MOLT-4 leukemia = system: MOLT-4 leukemia
SW-620 colon = system: SW-620 colon
HCT-15 colon = system: HCT-15 colon
BT-549 breast = system: BT-549 breast
MDA-MB-231 breast = system: MDA-MB-231 breast
HT29 colon = system: HT29 colon
TK-10 renal = system: TK-10 renal
SN12C renal = system: SN12C renal
SK-MEL-2 melanoma = system: SK-MEL-2 melanoma
CAKI-1 renal = system: CAKI-1 renal
SF-539 CNS = system: SF-539 CNS

Compound | TGI (HL-60(TB) leukemia) [µM] | TGI (MCF7 breast) [µM] | TGI (MOLT-4 leukemia) [µM] | TGI (SW-620 colon) [µM] | TGI (HCT-15 colon) [µM] | TGI (BT-549 breast) [µM] | TGI (MDA-MB-231 breast) [µM] | TGI (HT29 colon) [µM] | TGI (TK-10 renal) [µM] | GI50 (SN12C renal) [µM] | TGI (SN12C renal) [µM] | GI50 (HL-60(TB) leukemia) [µM] | GI50 (MOLT-4 leukemia) | GI50 (SW-620 colon) [µM] | GI50 (HCT-15 colon) | GI50 (HT29 colon) [µM] | TGI (SK-MEL-2 melanoma) [µM] | GI50 (CAKI-1 renal) [µM] | TGI (CAKI-1 renal) [µM] | TGI (SF-539 CNS) [µM]
CCCCCCCC/C=C/CCCCCCCC1CC(O)C(=O)O1 (stereo not drawn) | 88.3 | > 100 | > 100 | > 100 | > 100 | > 100 | > 100 | > 100 | > 100 |  |  |  |  |  |  |  |  |  |  | 
COc1cc([C@@H]2c3cc4c(c(O)c3C[C@H]3COC(=O)[C@@H]32)OCO4)cc(OC)c1O | 0.0066 | > 200 | 0.0374 | > 200 | > 9.28 |  |  | 1.53 |  | 0.00372 | 0.431 | 0.00241 | 0.00384 µM and 0.0274 µM | 0.00397 | 0.00348 µM and 0.0265 µM | 0.0182 | 6.56 | 0.00611 | < 0.02 | 
C[C@@H]1OC(=O)/C(=C\N(C)C)[C@H]2CC(=O)N(CCc3cn(S(=O)(=O)C(F)(F)F)c4ccccc34)C[C@H]12 |  | > 100 | > 100 | > 100 | > 100 | > 100 | > 100 |  | > 100 |  | > 100 |  |  |  |  |  | > 100 |  | > 100 | > 100
Cn1cnc([N+](=O)[O-])c1Sc1nc(N)nc2c1ncn2Cc1ccccc1 | 47.7 | > 100 |  | 78.2 | 45.8 | 57.2 | 41.3 | 67.8 | 41.9 |  | 37.3 |  |  |  |  |  | 40.4 |  | 31.1 | 
O=C1NN(c2ccccc2)C(=O)C2C3c4ccccc4C(c4ccccc43)C12 (stereo not drawn) |  | > 100 |  | > 100 | > 100 |  | > 100 | > 100 | > 100 |  | > 100 |  |  |  |  |  | > 100 |  | > 100 | > 100
CC(=O)OCc1cn(S(=O)(=O)c2ccc(C)cc2)cn1 | > 100 | > 100 | > 100 | > 100 | > 100 | > 100 | > 100 | > 100 | > 100 |  | > 100 |  |  |  |  |  |  |  | > 100 | > 100
CC(C)(C)NC1C2CCC(C)(C1O)C2(C)C (stereo not drawn) |  | 14.7 | > 100 | > 100 | > 100 | > 100 | > 100 | > 100 | > 100 |  |  |  |  |  |  |  | > 100 |  | > 100 | > 100
CC(=O)Nc1ccc(-c2nc3ccccc3s2)cc1O |  |  | 85.6 | > 100 | > 100 |  | > 100 | > 100 | > 100 |  | > 100 |  |  |  |  |  | > 100 |  | > 100 | 
CCOP(=O)(OCC)/C(C#N)=C/c1c(C)[nH]c2ccccc12 | > 100 | > 100 | > 100 | > 100 | > 100 | > 100 | > 100 | > 100 | > 100 |  | > 100 |  |  |  |  |  |  |  | > 100 | > 100
[N-]=[N+]=NC1=C(c2ccccc2)C(=O)c2cccc3cccc1c23 | > 100 | > 100 | 21.1 | > 100 | > 100 | 34.1 |  | 27 | 74.6 |  | > 100 |  |  |  |  |  | > 100 |  | > 100 | 91.1
NC(CCCCNC(=O)C(Cc1ccccc1)NC(=O)OCc1ccccc1)C(=O)NC(CCCCNC(=O)C(Cc1ccccc1)NC(=O)OCc1ccccc1)C(=O)NC(CCCCNC(=O)C(Cc1ccccc1)NC(=O)OCc1ccccc1)C(=O)NC(CCCCNC(=O)C(Cc1ccccc1)NC(=O)OCc1ccccc1)C(=O)NC(CCCCNC(=O)C(Cc1ccccc1)NC(=O)OCc1ccccc1)C(=O)NC(CCCCNC(=O)C(Cc1ccccc1)NC(=O)OCc1ccccc1)C(=O)O (stereo not drawn) | > 100 | > 100 | > 100 | > 100 | > 100 | > 100 | > 100 | > 100 | > 100 |  | > 100 |  |  |  |  |  | > 100 |  | > 100 | 
COc1c(O)cc(C(=O)O[C@@H]2Cc3c(O)cc(O)cc3O[C@@H]2c2cc(O)c(O)c(O)c2)cc1O | 63 | 42 | 56.8 | 59.8 | 86.2 | 65.2 |  | 37.1 | > 100 |  | 37.3 |  |  |  |  |  | > 100 |  | > 100 | 
CCOC(=O)C1(Cc2ccccc2)Cc2ccccc2C1=O (stereo not drawn) | > 100 | > 100 | 57.5 | > 100 | > 100 |  | > 100 | 65.2 | > 100 |  | > 100 |  |  |  |  |  | 30.7 |  |  | 96.2
c1ccc2c(c1)C(=Nc1ccc(N=C3c4ccccc4-c4ccccc43)cc1)c1ccccc1-2 | > 100 | > 100 | > 100 | > 100 | > 100 | > 100 | > 100 | > 100 | > 100 |  | > 100 |  |  |  |  |  | > 100 |  | > 100 | 
Cc1nc(C)c(N2CCN(C#N)CC2)c(=O)[nH]1 | > 100 | > 100 | > 100 | > 100 | > 100 | > 100 | > 100 | > 100 | > 100 |  | > 100 |  |  |  |  |  |  |  | > 100 | > 100
CC[C@]12C=CCN3CCC4(c5cc([C@@]6(C(=O)OC)CC7CN(CCc8c6[nH]c6ccccc86)C[C@@H]6CCC[C@H]76)c(OC)cc5N(C)C4[C@](O)(C(=O)OC)C1OC(C)=O)C32 (stereo partly drawn) | 0.289 | > 10 | 6.02 | > 4.07 | > 10 |  | 0.536 | > 3.12 | > 10 |  | > 10 |  |  |  |  |  | > 6.89 |  | > 10 | 0.574
COc1cccc(-n2c(N)c(-c3nc4cc(C(F)(F)F)ccc4s3)c3ccc([N+](=O)[O-])cc3c2=O)c1 |  | > 100 | > 100 |  | > 100 | > 100 | > 100 | > 100 | > 100 |  | > 100 |  |  |  |  |  | > 100 |  | > 100 | 
N#CC(c1cc(Cl)ncn1)c1nc2ccccc2s1 (stereo not drawn) |  |  | > 100 | 22 | 15.6 | 15.2 | 60.4 | 23.6 | > 100 |  | 7.49 |  |  |  |  |  |  |  | 82.1 | 50.5

— PubChem BioAssay (NCI)
